US9133104B2 (Chroma Therapeutics Ltd., priority 2005, dated 2015)

Experiments:
[1] = target: T1, histone deacetylase activity (HeLa nuclear extract); assay: HDAC fluorescent activity assay (Biomol Fluor de Lys), HeLa nuclear extract; format: biochemical; conditions: Fluor de Lys substrate, IC50 range
T1 construct: Histone deacetylase activity from crude nuclear extract derived from HeLa cells was used for screening
Method in brief: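 Crude HeLa nuclear extract (20 mM Hepes, 100 mM KCl, 0.2 mM EDTA, 0.5 mM DTT, 0.2 mM PMSF, 20% glycerol) incubated with acetyl-lysine Fluor de Lys substrate ± inhibitor; developer generates fluorophore. Background-subtracted % of vehicle control; IC50 from eight-point variable-slope sigmoidal fit.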

Hela cancer cell line = assay: Cell inhibition assay (SRB cell viability), Hela; format: cell-based; conditions: Homo sapiens, HeLa, 72 h, Hela cells, IC50 range
Method in brief: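 Log-phase Hela, U937 and HUT cells were seeded at 1000 cells/well, grown 24 h, then exposed to compound (20 uM final) for 72 h. Viability was read by sulphorhodamine B staining and expressed as % inhibition relative to DMSO control. IC50 values came from sigmoidal variable-slope fits of eight concentrations.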

U937 cancer cell line = assay: Cell inhibition assay (SRB cell viability), U937; format: cell-based; conditions: Homo sapiens, U-937, U937 cells, 72 h, IC50 range
Method: (§1) The corresponding cancer cell lines (Hela, U937 and HUT) growing in log phase were harvested and seeded at 1000 cells/well (200 ul final volume) into 96-well tissue culture plates. Following 24 h of cell growth cells were treated with compounds (final concentration of 20 uM). Plates were then re-incubated for a further 72 h before a sulphorhodamine B (SRB) cell viability assay was conducted according to Skehan 1990 J Natl Canc Inst 82, 1107-1112.
(§2) Data were expressed as a percentage inhibition of the control, measured in the absence of inhibitor, as follows:— % inhibition=100−((S^i/S^o)×100) where S^i is the signal in the presence of inhibitor and S^o is the signal in the presence of DMSO. IC50 values were determined by non-linear regression analysis, after fitting the results of eight data points to the equation for sigmoidal dose response with variable slope (% activity against log concentration of compound), using Graphpad Prism software. […] NT=Not tested

HUT cancer cell line = assay: Cell inhibition assay (SRB cell viability), HUT; format: cell-based; conditions: HUT cells, 72 h, IC50 range
Method: as §1, §2

Row | IC50 [1] [nM] | IC50 (Hela cancer cell line) [µM] | IC50 (U937 cancer cell line) [µM] | IC50 (HUT cancer cell line) [µM] | SMILES
1 | > 1000 | > 3.3 | 0.33 to 3.3 | 0.33 to 3.3 | O=C(CCCCCCC(=O)N1CCc2ccc(C(=O)N[C@H](C(=O)OC3CCCC3)c3ccccc3)cc2C1)NO [Compound 15, (S)-{[2-(7-Hydroxycarbamoyl-heptanoyl)-1,2,3,4-tetrahydro-isoquinoline-7-carbonyl]-amino}-phenyl-acetic acid cyclopentyl ester]
2 | > 1000 | > 3.3 | > 3.3 | > 3.3 | O=C(CCCCCCC(=O)N1CCc2ccc(C(=O)N[C@H](C(=O)O)c3ccccc3)cc2C1)NO [Compound 16, (S)-{[2-(7-Hydroxycarbamoyl-heptanoyl)-1,2,3,4-tetrahydro-isoquinoline-7-carbonyl]-amino}-phenyl-acetic acid]
3 | 101 to 1000 | > 3.3 | 0.33 to 3.3 | 0.33 to 3.3 | O=C(CCCCCCC(=O)Nc1ccc(C(=O)N[C@H](C(=O)OC2CCCC2)c2ccccc2)cc1)NO [Compound 17, (S)-[4-(7-Hydroxycarbamoyl-heptanoylamino)-benzoylamino]-phenyl-acetic acid cyclopentyl ester]
4 | 101 to 1000 | > 3.3 | > 3.3 | > 3.3 | O=C(CCCCCCC(=O)Nc1ccc(C(=O)N[C@H](C(=O)O)c2ccccc2)cc1)NO [Compound 18, (S)-[4-(7-Hydroxycarbamoyl-heptanoylamino)-benzoylamino]-phenyl-acetic acid]
5 | 101 to 1000 | 0.33 to 3.3 | 0.33 to 3.3 | 0.33 to 3.3 | CC(C)(C)OC(=O)[C@@H](NC(=O)[C@H]1Cc2c([nH]c3ccccc23)CN1C(=O)CCCCCCC(=O)NO)c1ccccc1 [Compound 19, (S)-{[(R)-2-(7-Hydroxycarbamoyl-heptanoyl)-2,3,4,9-tetrahydro-1H-beta-carboline-3-carbonyl]-amino}-phenyl-acetic acid tert-butyl ester]
6 | 101 to 1000 | 0.33 to 3.3 | < 0.33 | 0.33 to 3.3 | O=C(CCCCCCC(=O)Nc1ccc(CN[C@H](C(=O)OC2CCCC2)c2ccccc2)cc1)NO [Compound 20, (S)-[4-(7-Hydroxycarbamoyl-heptanoylamino)-benzylamino]-phenyl-acetic acid cyclopentyl ester]
7 | 101 to 1000 | > 3.3 | > 3.3 | > 3.3 | O=C(CCCCCCC(=O)Nc1ccc(CN[C@H](C(=O)O)c2ccccc2)cc1)NO [Compound 21, (S)-[4-(7-Hydroxycarbamoyl-heptanoylamino)-benzylamino]-phenyl-acetic acid]
8 | 101 to 1000 | 0.33 to 3.3 | 0.33 to 3.3 | 0.33 to 3.3 | O=C(CCCCCCC(=O)Nc1ccc(S(=O)(=O)N[C@H](C(=O)OC2CCCC2)c2ccccc2)cc1)NO [Compound 22, (S)-[4-(7-Hydroxycarbamoyl-heptanoylamino)-benzenesulfonylamino]-phenyl-acetic acid cyclopentyl ester]
9 | 101 to 1000 | > 3.3 | > 3.3 | > 3.3 | O=C(CCCCCCC(=O)Nc1ccc(S(=O)(=O)N[C@H](C(=O)O)c2ccccc2)cc1)NO [Compound 23, (S)-[4-(7-Hydroxycarbamoyl-heptanoylamino)-benzenesulfonylamino]-phenyl-acetic acid]
10 | 101 to 1000 | > 3.3 | > 3.3 | 0.33 to 3.3 | O=C(CCCCCCC(=O)N1CCc2c([nH]c3ccc(OCC(=O)N[C@H](C(=O)OC4CCCC4)c4ccccc4)cc23)C1)NO [Compound 24, (S)-{2-[2-(7-Hydroxycarbamoyl-heptanoyl)-2,3,4,9-tetrahydro-1H-beta-carbolin-6-yloxy]-acetylamino}-phenyl-acetic acid cyclopentyl ester]
11 | 101 to 1000 | > 3.3 | > 3.3 | > 3.3 | O=C(CCCCCCC(=O)N1CCc2c([nH]c3ccc(OCC(=O)N[C@H](C(=O)O)c4ccccc4)cc23)C1)NO [Compound 25]
12 | < 100 | 0.33 to 3.3 | 0.33 to 3.3 | 0.33 to 3.3 | CCOC(=O)[C@H](Cc1ccccc1)NCc1cccc(NC(=O)CCCCCCC(=O)NO)c1 [Compound 26, (S)-2-[3-(7-Hydroxycarbamoyl-heptanoylamino)-benzylamino]-3-phenyl-propionic acid ethyl ester]
13 | 101 to 1000 | 0.33 to 3.3 | 0.33 to 3.3 | 0.33 to 3.3 | O=C(CCCCCCC(=O)Nc1cccc(CN[C@@H](Cc2ccccc2)C(=O)OC2CCCC2)c1)NO [Compound 28, (S)-2-[3-(7-Hydroxycarbamoyl-heptanoylamino)-benzylamino]-3-phenyl-propionic acid cyclopentyl ester]
14 | 101 to 1000 | 0.33 to 3.3 | 0.33 to 3.3 | 0.33 to 3.3 | CCOC(=O)[C@H](CCc1ccccc1)NCc1cccc(NC(=O)CCCCCCC(=O)NO)c1 [Compound 29, (S)-2-[3-(7-Hydroxycarbamoyl-heptanoylamino)-benzylamino]-4-phenyl-butyric acid ethyl ester]
15 | 101 to 1000 | 0.33 to 3.3 | < 0.33 | 0.33 to 3.3 | O=C(CCCCCCC(=O)Nc1cccc(CN[C@@H](CCc2ccccc2)C(=O)OC2CCCC2)c1)NO [Compound 31, (S)-2-[3-(7-Hydroxycarbamoyl-heptanoylamino)-benzylamino]-4-phenyl-butyric acid cyclopentyl ester]
16 | 101 to 1000 | 0.33 to 3.3 | 0.33 to 3.3 | 0.33 to 3.3 | CC(C)(C)OC(=O)[C@@H](NCc1cccc(NC(=O)CCCCCCC(=O)NO)c1)c1ccccc1 [Compound 35, (S)-[3-(7-Hydroxycarbamoyl-heptanoylamino)-benzylamino]-phenyl-acetic acid tert-butyl ester]
17 | < 100 | 0.33 to 3.3 | < 0.33 | 0.33 to 3.3 | O=C(CCCCCCC(=O)Nc1cccc(CN[C@H](C(=O)OC2CCCC2)c2ccccc2)c1)NO [Compound 36, (S)-[3-(7-Hydroxycarbamoyl-heptanoylamino)-benzylamino]-phenyl-acetic acid cyclopentyl ester]
18 | 101 to 1000 | > 3.3 | > 3.3 | > 3.3 | O=C(CCCCCCC(=O)Nc1cccc(CN[C@H](C(=O)O)c2ccccc2)c1)NO [Compound 37, (S)-[3-(7-Hydroxycarbamoyl-heptanoylamino)-benzylamino]-phenyl-acetic acid]
19 | > 1000 | > 3.3 | > 3.3 | > 3.3 | O=C(CCCCCCC(=O)Nc1ccccc1CN[C@H](C(=O)OC1CCCC1)c1ccccc1)NO [Compound 40, (S)-[2-(7-Hydroxycarbamoyl-heptanoylamino)-benzylamino]-phenyl-acetic acid cyclopentyl ester]
20 | > 1000 | > 3.3 | > 3.3 | > 3.3 | O=C(CCCCCCC(=O)Nc1ccccc1CN[C@H](C(=O)O)c1ccccc1)NO [Compound 41, (S)-[2-(7-Hydroxycarbamoyl-heptanoylamino)-benzylamino]-phenyl-acetic acid]
21 | > 1000 | 0.33 to 3.3 | 0.33 to 3.3 | 0.33 to 3.3 | O=C(CCCCCCC(=O)N1CCc2c([nH]c3ccccc23)C1CN[C@H](C(=O)OC1CCCC1)c1ccccc1)NO (stereo partly drawn) [Compound 42, (S)-{[2-(7-Hydroxycarbamoyl-heptanoyl)-2,3,4,9-tetrahydro-1H-beta-carbolin-1-ylmethyl]-amino}-phenyl-acetic acid cyclopentyl ester]
22 | 101 to 1000 | > 3.3 | > 3.3 | > 3.3 | O=C(CCCCCCC(=O)N1CCc2c([nH]c3ccccc23)C1CN[C@H](C(=O)O)c1ccccc1)NO (stereo partly drawn) [Compound 43, (S)-{[2-(7-Hydroxycarbamoyl-heptanoyl)-2,3,4,9-tetrahydro-1H-beta-carbolin-1-ylmethyl]-amino}-phenyl-acetic acid]
23 | 101 to 1000 | > 3.3 | 0.33 to 3.3 | 0.33 to 3.3 | O=C(CCCCCCC(=O)N1Cc2ccccc2C[C@H]1C(=O)N[C@H](C(=O)OC1CCCC1)c1ccccc1)NO [Compound 44, (S)-{[(S)-2-(7-Hydroxycarbamoyl-heptanoyl)-1,2,3,4-tetrahydro-isoquinoline-3-carbonyl]-amino}-phenyl-acetic acid cyclopentyl ester]

Row | SMILES | IC50 [1] [nM] | IC50 (Hela cancer cell line) [µM] | IC50 (U937 cancer cell line) [µM] | IC50 (HUT cancer cell line) [µM]
24 | CC(C)(C)OC[C@H](NCc1cccc(NC(=O)CCCCCCC(=O)NO)c1)C(=O)OC1CCCC1 [Compound 34, (S)-3-tert-Butoxy-2-[3-(7-hydroxycarbamoyl-heptanoylamino)-benzylamino]-propionic acid cyclopentyl ester] | 101 to 1000 | 0.33 to 3.3 | < 0.33 | 0.33 to 3.3
